Counter-ions that a name gives are not always drawn.
Key:
μ-opioid receptors [1] = test: Evaluation of agonist activity, guinea pig ileum test; settings: for Response to the compound + Naloxone (1.0E−07 M): compound 1.0E−04 M + naloxone 1.0E−07 M
Protocol: (§1) Agonist/antagonist activity at the μ-opioid receptor was determined using the well known guinea pig ileum test. Briefly, an a section of ileum section was placed in a stabilizing solution in a tensed state. Transducers were used to measure changes in tension upon electrical stimulation to the tissue before and after challenge with a potential agonist/antagonist Using a control, constriction inhibition, and constriction inhibition cancellation, may be measured.
(§2) The results are expressed as a percent of the control response to DAMGO (decrease in which contract amplitude)

μ-opioid receptors [2] = test: Evaluation of antagonist activity, guinea pig ileum test (responses to DAMGO)
Protocol: as §1, §2

[3] = 1.0E−08 M, control DAMGO 1.0E−07 M = 100

| SMILES | Responses to increasing concentrations of the compounds (μ-opioid receptors [1]; 1.0E−06 M) | Responses to increasing concentrations of the compounds (μ-opioid receptors [1]; 1.0E−07 M) | Responses to increasing concentrations of the compounds (μ-opioid receptors [1]; [3]) | Responses to increasing concentrations of the compounds (μ-opioid receptors [1]; 1.0E−04 M) | Responses to increasing concentrations of the compounds (μ-opioid receptors [1]; 1.0E−05 M) | Responses to increasing concentrations of the compounds (μ-opioid receptors [1]; 3.0E−05 M) | Responses to increasing concentrations of the compounds (μ-opioid receptors [1]; 3.0E−06 M) | Responses to increasing concentrations of the compounds (μ-opioid receptors [1]; 3.0E−07 M) | Responses to increasing concentrations of the compounds (μ-opioid receptors [1]; 3.0E−08 M) | Response to the compound + Naloxone (1.0E−07 M) (μ-opioid receptors [1]) | Responses to DAMGO (1.0E−07 M) in the presence of increasing concentrations of the compounds (μ-opioid receptors [2]; 1.0E−04 M) | Responses to DAMGO (1.0E−07 M) in the presence of increasing concentrations of the compounds (μ-opioid receptors [2]; 1.0E−05 M) | Responses to DAMGO (1.0E−07 M) in the presence of increasing concentrations of the compounds (μ-opioid receptors [2]; 1.0E−06 M) | Responses to DAMGO (1.0E−07 M) in the presence of increasing concentrations of the compounds (μ-opioid receptors [2]; 1.0E−07 M) | Responses to DAMGO (1.0E−07 M) in the presence of increasing concentrations of the compounds (μ-opioid receptors [2]; 1.0E−08 M) | Responses to DAMGO (1.0E−07 M) in the presence of increasing concentrations of the compounds (μ-opioid receptors [2]; 3.0E−05 M) | Responses to DAMGO (1.0E−07 M) in the presence of increasing concentrations of the compounds (μ-opioid receptors [2]; 3.0E−06 M) | Responses to DAMGO (1.0E−07 M) in the presence of increasing concentrations of the compounds (μ-opioid receptors [2]; 3.0E−07 M) | Responses to DAMGO (1.0E−07 M) in the presence of increasing concentrations of the compounds (μ-opioid receptors [2]; 3.0E−08 M) | also measured |
| --- | --- | --- | --- | --- | --- | --- | --- | --- | --- | --- | --- | --- | --- | --- | --- | --- | --- | --- | --- | --- |
| C[C@@H](NC(=O)[C@@H](N)Cc1ccc(O)cc1)C(=O)NCC(=O)N(C)[C@@H](Cc1ccccc1)C(=O)NCCO [DAMGO, reference compound] | 103% of the control response to DAMGO | 96% of the control response to DAMGO | 57% of the control response to DAMGO | – | – | – | – | – | – | – | – | – | – | – | – | – | – | – | – | Responses to increasing concentrations of the compounds (μ-opioid receptors [1]; 1.0E−09 M): 9% of the control response to DAMGO; Response to DAMGO + Naloxone (1.0E−07 M) (μ-opioid receptors [1]; DAMGO after the highest concentration, + naloxone 1.0E−07 M): 4% of the control response to DAMGO |
| CCCOC1C[C@@H](O)[C@@H]2Oc3c(O)ccc4c3[C@@]23CC[N+](C)(CC2CC2)[C@H](C4)[C@]13O (stereo partly drawn) [(R)-CPM, trifluoroacetate] | 0% of the control response to DAMGO | 0% of the control response to DAMGO | 0% of the control response to DAMGO | 22% of the control response to DAMGO | 0% of the control response to DAMGO | 5% of the control response to DAMGO | 0% of the control response to DAMGO | 0% of the control response to DAMGO | 0% of the control response to DAMGO | 17% of the control response to DAMGO | 22% of the control response to DAMGO | 5% of the control response to DAMGO | 32% of the control response to DAMGO | 90% of the control response to DAMGO | 100% of the control response to DAMGO | 12% of the control response to DAMGO | 11% of the control response to DAMGO | 69% of the control response to DAMGO | 100% of the control response to DAMGO | – |
| C[N@+]1(CC2CCCC2)CC[C@]23c4c5ccc(O)c4O[C@H]2C(=O)CC[C@@]3(O)[C@H]1C5 [(R)-CPTM, (R)-17-cyclopentylmethyl-4,5α-epoxy-3,14-dihydroxy-17-methyl-6-oxomorphinanium iodide] | 0% of the control response to DAMGO | 0% of the control response to DAMGO | 0% of the control response to DAMGO | 18% of the control response to DAMGO | 0% of the control response to DAMGO | 12% of the control response to DAMGO | 0% of the control response to DAMGO | 0% of the control response to DAMGO | 0% of the control response to DAMGO | 18% of the control response to DAMGO | 40% of the control response to DAMGO | 28% of the control response to DAMGO | 21% of the control response to DAMGO | 84% of the control response to DAMGO | 100% of the control response to DAMGO | 34% of the control response to DAMGO | −1% of the control response to DAMGO | 63% of the control response to DAMGO | 96% of the control response to DAMGO | – |
